According to US8585965B2, “Sterilization of polymeric materials” (priority 2006, dated 2013):

Assays:
Type in all cases: cell-based
[1] = tested on: Enterococcus faecalis ATCC 29212; experiment: Radiosensitization of bacteria coated onto a material surface (sterile 12 mm paper disks), gamma irradiation, cfu by dilution plating; settings: for enhancement of the killing efficiency of the irradiation / cfu recovered, 0.3 kGy: 0.3 kGy; for enhancement of the killing efficiency of the irradiation: paper disks; for Post-Treatment CFU Added: 2 hours at room temperature; for cfu recovered, 0.3 kGy / cfu recovered, 0 kGy: paper disk; for cfu recovered, 0 kGy: not irradiated
Protocol: Enterococcus faecalis ATCC 29212, grown overnight in tryptic soy broth at 37° C. without shaking, were centrifuged and resuspended in 2% glucose at a concentration of about 5×10^7 cfu/ml. […] The cfu contained in each sample were quantified by dilution plating and the values are listed as “post-treatment cfu added.” None of the radiosensitizer treatments alone appeared to have a significant adverse effect on the bacteria.
Following radiosensitizer treatment, 0.05 ml of each mixture (containing approximately 1×10^6 cfu) was spotted onto sterile 12 mm paper disks and the disks air dried for 30 minutes. The disks were then placed in sterile tubes and left untreated or irradiated with 0.3 kGy. The cfu were recovered from the disks by vortexing with glass beads for 1 minute in 0.85% saline with 0.35 g/l lecithin and 2.5 ml/l Tween 80. Quantification of the cfu was then performed by dilution plating onto tryptic soy agar.

[2] = tested on: Enterococcus faecalis ATCC 29212; experiment: Radiosensitization of bacteria coated onto Vicryl mesh (Example 2), irradiation 0.1 or 0.2 kGy; set-up: Inoculum: dose or concentration left out as unconfirmed
Protocol: Enterococcus faecalis ATCC 29212, grown overnight in tryptic soy broth at 37° C. without shaking, were centrifuged and resuspended in phosphate buffered saline (PBS) at a concentration of roughly 2×10^9 cfu/ml. […] The cfu contained in each sample after this incubation were quantified by dilution plating.
Following radiosensitizer treatment, 0.01 ml of each mixture (containing approximately 2×10^7 cfu) was spotted onto nine 1 cm×1 cm squares of Vicryl® mesh that were then air dried for 60 minutes. Triplicate samples were then placed in sterile tubes and left untreated or irradiated with 0.1 or 0.2 kGy. The cfu were recovered from the meshes by vortexing with glass beads for 1 minute in 0.85% saline with 0.35 g/l lecithin and 2.5 ml/l Tween 80. Quantification of the cfu was then performed by dilution plating onto tryptic soy agar.

[3] = tested on: Enterococcus faecalis ATCC 29212; experiment: Radiosensitization of bacteria coated onto Prolene mesh (Example 3)
Protocol: (§1) Enterococcus faecalis ATCC 29212, grown overnight in tryptic soy broth at 37° C. without shaking, were centrifuged and resuspended in phosphate buffered saline (PBS) at a concentration of about 5×10^8 cfu/ml. […] The cfu contained in each sample after this incubation were quantified by dilution plating.
(§2) Following radiosensitizer treatment, 0.01 ml of each mixture (containing approximately 5×10^8 cfu) was spotted onto nine 1 cm×1 cm squares of Prolene® mesh that were then air dried for 60 minutes. Triplicate samples were then placed in sterile tubes and left untreated or irradiated with 0.1 or 0.3 kGy. The cfu were recovered from the mesh by vortexing with glass beads for 1 minute in 0.85% saline with 0.35 g/l lecithin and 2.5 ml/l Tween 80. Quantification of the cfu was then performed by dilution plating onto tryptic soy agar.

[4] = tested on: Enterococcus faecalis ATCC 29212; experiment: Radiosensitization of bacteria coated onto Vicryl mesh (Example 3); settings: for Avg CFU Recovered / Log Red v 0 kGy / Log Red v Control / Log Red v Inoculum: 50 μg/ml, Vicryl
Protocol: as §1
Following radiosensitizer treatment, 0.01 ml of each mixture (containing approximately 5×10^8 cfu) was spotted onto nine 1 cm×1 cm squares of Vicryl® mesh that were then air dried for 60 minutes. Triplicate samples were then placed in sterile tubes and left untreated or irradiated with 0.1 or 0.3 kGy. The cfu were recovered from the mesh by vortexing with glass beads for 1 minute in 0.85% saline with 0.35 g/l lecithin and 2.5 ml/l Tween 80. Quantification of the cfu was then performed by dilution plating onto tryptic soy agar.

[5] = tested on: Enterococcus faecalis ATCC 29212; experiment: Radiosensitization of bacteria coated onto Spongostan gelatin sponge (Example 4); settings: 50 μg/ml methylene blue
Protocol: as §1
as §2, with “Spongostan® gelatin sponge” for “Prolene® mesh”, “minutes. (Spongostan® is a dry artificial sponge of fibrin prepared by clotting with thrombin, a foam or solution of fibrinogen. It is used in conjunction with thrombin as a hemostatic in surgery at sites where bleeding cannot be controlled by more common methods.)” for “minutes.”, “sponge” for “mesh”

[6] = 50 μg/ml methylene blue, 2 hours, no irradiation
[7] = 50 μg/ml, 0.3 kGy, Prolene, triplicate samples

For `O=C1O[C@H]([C@@H](O)CO)C(O)=C1O` [Ascorbic Acid, ascorbic acid], the “enhancement of the killing efficiency of the irradiation” value (“enhancement” for short) [1] was “greatest effect”, the “Percent Survival 0.3 vs. 0 kGy” value ([1]; Conc. 200 μg/ml) was 0.28% and the “Post-Treatment CFU Added” value ([1]; Conc. 200 μg/ml) was 8.55E+05 CFU. For the same compound, the “cfu recovered, 0.3 kGy” value ([1]; Conc. 200 μg/ml) was 9 cfu and the “cfu recovered, 0 kGy” value ([1]; Conc. 200 μg/ml) was 3270 cfu.

`CN(C)c1ccc2nc3ccc(=[N+](C)C)cc-3sc2c1` [Methylene Blue, methylene blue] was tested, and the “Percent Survival 0.3 vs. 0 kGy” value ([1]; Conc. 20 μg/ml) was 0.13%, the “Post-Treatment CFU Added” value ([1]; Conc. 20 μg/ml) was 7.80E+05 CFU and the “cfu recovered, 0.3 kGy” value ([1]; Conc. 20 μg/ml) was 3 cfu. For the same compound, the “cfu recovered, 0 kGy” value ([1]; Conc. 20 μg/ml) was 2250 cfu, the “Avg CFU Rec” value ([2]; 0 kGy, Vicryl mesh) was 7.40E+05 CFU and the “Avg Log CFU” value ([2]; 0 kGy, Vicryl mesh) was 5.72 Log CFU. For the same compound, the “cfu contained in sample after incubation” value ([2]; 50 μg/ml methylene blue, 2 hours at room temperature, PBS, untreated 1.8×10^9) was 1.6×10^9 cfu/ml, the “effect of incubation on the bacterial number” value (from here on “effect of incubation”) [2, 6] was “did not significantly affect the bacterial number” and the “Avg Log CFU” value ([2]; 0.1 kGy, Vicryl mesh) was 3.90 Log CFU. The “Avg CFU Rec” value ([2]; 0.2 kGy, Vicryl mesh) was 1.83E+03 CFU, the “Avg Log CFU” value ([2]; 0.2 kGy, Vicryl mesh) was 3.08 Log CFU and the “effect on bacterial recovery” value ([2]; methylene blue, Vicryl mesh) was “small effect on bacterial recovery”. For the same compound, the “recovery from unirradiated sample” value ([2]; methylene blue-treated, 0 kGy, Vicryl mesh, control 15%) was 4.6%, the Inoculum ([2]; spotted onto Vicryl mesh) was 1.60E+07 CFU and the “cfu contained in sample after incubation” value ([3]; 50 μg/ml methylene blue, 2 hours at room temperature, PBS, suspension used for Prolene and Vicryl meshes, untreated 4.8×10^8) was 4.2×10^8 cfu/ml. The “effect of incubation” value [3, 6] was “did not significantly affect the bacterial number”, the Inoculum ([3]; 50 μg/ml methylene blue, spotted onto Prolene mesh) was 4.20E+06 CFU and the “Avg CFU Recovered” value ([3]; 50 μg/ml, 0.0 kGy, Prolene) was 2.38E+03 CFU. The “Log Red v 0 kGy” value ([3]; 50 μg/ml, 0.0 kGy, Prolene) was 0.0 Log, the “Log Red v Control” value ([3]; 50 μg/ml, 0.0 kGy, Prolene) was −1.5 Log and the “Log Red v Inoculum” value ([3]; 50 μg/ml, 0.0 kGy, Prolene) was −3.2 Log. For the same compound, the “Avg CFU Recovered” value ([3]; 50 μg/ml, 0.3 kGy, Prolene) was 0.00E+00 CFU, the “Log Red v 0 kGy” value ([3]; 50 μg/ml, 0.3 kGy, Prolene) was −3.4 Log and the “Log Red v Control” value ([3]; 50 μg/ml, 0.3 kGy, Prolene) was −1.2 Log. For the same compound, the “Log Red v Inoculum” value ([3]; 50 μg/ml, 0.3 kGy, Prolene) was −6.6 Log, the “Plated CFU” value [3, 7] was 0.00E+00 CFU and the “Total CFU Recovered” value [3, 7] was 0.00E+00 CFU. The “number of bacteria recovered, combination with irradiation compared to methylene blue or irradiation alone” value ([3]; Prolene mesh) was “significantly reduced the number of bacteria recovered”, the Inoculum ([4]; 50 μg/ml methylene blue, spotted onto Vicryl mesh) was 4.20E+06 CFU and the “Avg CFU Recovered” value ([4]; 0.0 kGy) was 1.79E+04 CFU. For the same compound, the “Log Red v 0 kGy” value ([4]; 0.0 kGy) was 0.0 Log, the “Log Red v Control” value ([4]; 0.0 kGy) was −1.2 Log and the “Log Red v Inoculum” value ([4]; 0.0 kGy) was −2.4 Log. The “Avg CFU Recovered” value ([4]; 0.3 kGy) was 9.83E+01 CFU, the “Log Red v 0 kGy” value ([4]; 0.3 kGy) was −2.3 Log and the “Log Red v Control” value ([4]; 0.3 kGy) was −0.8 Log. For the same compound, the “Log Red v Inoculum” value ([4]; 0.3 kGy) was −4.6 Log, the “number of bacteria recovered, combination with irradiation compared to methylene blue or irradiation alone” value ([4]; Vicryl mesh) was “significantly reduced the number of bacteria recovered” and the “cfu contained in sample after incubation” value ([5]; 2 hours at room temperature, PBS, untreated 4.8×10^8) was 4.2×10^8 cfu/ml. For the same compound, the “effect of incubation” value ([5]; 2 hours, no irradiation) was “did not significantly affect the bacterial number”.

`Cc1cc2nc3c(=O)[nH]c(=O)nc-3n(C[C@H](O)[C@H](O)[C@H](O)CO)c2cc1C` [Riboflavin, riboflavin] was tested, and the “Percent Survival 0.3 vs. 0 kGy” value ([1]; Conc. 200 μg/ml) was 0.28%, the “Post-Treatment CFU Added” value ([1]; Conc. 200 μg/ml) was 8.50E+05 CFU and the “cfu recovered, 0.3 kGy” value ([1]; Conc. 200 μg/ml) was 3 cfu. For the same compound, the “cfu recovered, 0 kGy” value ([1]; Conc. 200 μg/ml) was 1080 cfu, the “Percent Survival 0.3 vs. 0 kGy” value ([1]; Conc. 1000 μg/ml) was 0.83% and the “Post-Treatment CFU Added” value ([1]; Conc. 1000 μg/ml) was 8.00E+05 CFU. For the same compound, the “cfu recovered, 0.3 kGy” value ([1]; Conc. 1000 μg/ml) was 9 cfu and the “cfu recovered, 0 kGy” value ([1]; Conc. 1000 μg/ml) was 1080 cfu.

For `O=[N+]([O-])[O-].[Na+]` [Sodium Nitrate, sodium nitrate], the “enhancement” value [1] was “greatest effect”, the “Percent Survival 0.3 vs. 0 kGy” value ([1]; Conc. 5000 μg/ml) was 0.00% and the “Post-Treatment CFU Added” value ([1]; Conc. 5000 μg/ml) was 8.15E+05 CFU. The “cfu recovered, 0.3 kGy” value ([1]; Conc. 5000 μg/ml) was 0 cfu and the “cfu recovered, 0 kGy” value ([1]; Conc. 5000 μg/ml) was 420 cfu.

With `Cc1cc2nc3ccc(N(C)C)cc3[s+]c2cc1N.[Cl-]` [Toluidine Blue, toluidine blue] the “enhancement” value [1] was “greatest effect”, the “Percent Survival 0.3 vs. 0 kGy” value ([1]; Conc. 20 μg/ml) was 0.00% and the “Post-Treatment CFU Added” value ([1]; Conc. 20 μg/ml) was 7.70E+05 CFU. The “cfu recovered, 0.3 kGy” value ([1]; Conc. 20 μg/ml) was 0 cfu, the “cfu recovered, 0 kGy” value ([1]; Conc. 20 μg/ml) was 87 cfu and the “Percent Survival 0.3 vs. 0 kGy” value ([1]; Conc. 100 μg/ml) was 0.00%. For the same compound, the “Post-Treatment CFU Added” value ([1]; Conc. 100 μg/ml) was 4.65E+05 CFU, the “cfu recovered, 0.3 kGy” value ([1]; Conc. 100 μg/ml) was 0 cfu and the “cfu recovered, 0 kGy” value ([1]; Conc. 100 μg/ml) was 72 cfu.
